We go through 20 molecules from patent US9447148B2, “Melanocortin-1 receptor-specific cyclic peptides” (Palatin Technologies, Inc., priority 2009, dated 2016).

A word on the EC50: it is the concentration giving half of the maximal effect. As a reminder, the Ki is a measure of affinity in units of concentration, obtained from inhibition or displacement.

Bridge positions count the residues as written; N and C are the ends. Square brackets hold non-standard residues; d marks the D form. Peptide text beside a SMILES is read from it. dPhe(4-Me) = Cc1ccc(C[C@@H](N)C(=O)O)cc1; Nle = CCCC[C@H](N)C(=O)O; Orn = NCCC[C@H](N)C(=O)O; Dab = NCC[C@H](N)C(=O)O; Dap = NC[C@H](N)C(=O)O

For one experiment, the target named is hMCR-1 (Homo sapiens (Human), UniProt Q01726). The experiment can be described thus: Assay for agonist activity: intracellular cAMP accumulation in HBL human melanoma cells. The format is cell-based. The note with it: for EC50: HBL cells expressing hMCR-1, averaged, read-out: MC-1 EC50 (average; cAMP HBL); for MC-1 Emax (average; cAMP HBL): HBL cells, maximum efficacy compared to reference agonist NDP-α-MSH. On the procedure:
Confluent HBL cells that express hMCR-1 or HEK-293 cells that express recombinant hMCR-4 were detached from culture plates by incubation in enzyme-free cell dissociation buffer. Dispersed cells were suspended in Earle's Balanced Salt Solution containing 10 mM HEPES (pH 7.5), 1 mM MgCl2, 1 mM glutamine, 0.5% albumin and 0.3 mM 3-isobutyl-1-methyl-xanthine (IBMX), a phosphodiesterase inhibitor. The cells were plated in 96-well plates at a density of 0.4×10^5 cells per well for HBL cells and 0.5×10^5 cells per well for HEK-293 cells and pre-incubated for 10 minutes. Cells were exposed for 15 minutes at 37° C. to peptides of the present invention dissolved in DMSO (final DMSO concentration of 1%) at a concentration range of 0.05-5000 nM in a total assay volume of 200 μL. […] Data analysis was performed by nonlinear regression analysis with Graph-Pad Prism® software.
(§1) Peptides of the following structures were synthesized and averaged MCR-1 and MCR-4 Ki values were determined as indicated. […] All results are expressed in nM except for Emax values, which are percentage values. Peptides with the captioned primary sequence were synthesized and purified as described in Section 5 above, with the resulting peptide having the structure depicted.
A general note: cAMP levels reflect the balance of adenylyl cyclase and phosphodiesterase activity.

For another experiment, the target named is hMCR-1a (Homo sapiens (Human), UniProt Q01726). The experiment is described as follows: Competitive inhibition binding assay using [I125]-NDP-α-MSH, hMCR-1a. The conditions noted are these: membrane homogenates of HEK-293 cells, human recombinant receptor, averaged, read-out: MC-1 Ki (average). How it is done:
(§2) A competitive inhibition binding assay was performed using membrane homogenates prepared from HEK-293 cells that express recombinant hMCR-1a or hMCR-4 (in each instance where the h prefix refers to human), or alternatively membrane homogenates from B16-F10 mouse melanoma cells containing endogenous murine MCR-1. In the examples that follow, all MCR-1 and MCR-4 values are for human recombinant receptors, unless otherwise noted. Assays were performed in 96 well polypropylene round-bottom plates (VWR catalog number 12777-030). […] After incubation for 90 minutes at 37° C., the assay mixture was filtered onto GF/B Unifilter plates (Perkin-Elmer catalog number 6005177) and washed with 3 mL of ice-cold buffer per well. Filters were air dried and 35 μL of scintillation cocktail added to each well. Plates were counted in a Microbeta counter for bound radioactivity. […] Each assay was conducted in duplicate and the actual mean values are described, with results less than 0% reported as 0%. Ki values for peptides of the present invention were determined using Graph-Pad Prism® curve-fitting software.
as §1

The target in the next experiment is hMCR-4 (Homo sapiens (Human), UniProt P32245). The experiment is described as follows: Competitive inhibition binding assay using [I125]-NDP-α-MSH, hMCR-4. The note with it: membrane homogenates of HEK-293 cells, human recombinant receptor, averaged, read-out: MC-4 Ki (average). On the procedure: as §2, §1
hMCR-4, sequence (P32245 whole entry): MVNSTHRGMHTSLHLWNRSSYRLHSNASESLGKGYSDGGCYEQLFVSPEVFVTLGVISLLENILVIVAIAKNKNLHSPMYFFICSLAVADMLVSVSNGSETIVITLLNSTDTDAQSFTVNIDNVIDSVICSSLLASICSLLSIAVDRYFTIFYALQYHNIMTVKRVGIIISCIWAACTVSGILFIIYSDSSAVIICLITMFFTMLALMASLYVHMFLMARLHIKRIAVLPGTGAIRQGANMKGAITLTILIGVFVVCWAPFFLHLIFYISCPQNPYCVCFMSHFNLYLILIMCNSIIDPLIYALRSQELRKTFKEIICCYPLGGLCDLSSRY

hMCR-1a, sequence (Q01726 whole entry): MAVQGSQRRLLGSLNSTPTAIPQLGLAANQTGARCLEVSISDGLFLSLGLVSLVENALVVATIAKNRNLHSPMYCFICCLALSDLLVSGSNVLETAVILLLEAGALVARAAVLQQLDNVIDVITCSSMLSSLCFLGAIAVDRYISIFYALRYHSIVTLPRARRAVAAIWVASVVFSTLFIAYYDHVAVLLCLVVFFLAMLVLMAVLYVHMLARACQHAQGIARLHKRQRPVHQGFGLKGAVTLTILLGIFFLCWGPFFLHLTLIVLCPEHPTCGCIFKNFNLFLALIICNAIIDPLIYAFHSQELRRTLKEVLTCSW
hMCR-1, sequence (Q01726 whole entry): as above

Take `CCCC[C@H](NC(C)=O)C(=O)N[C@H]1CC(=O)NC[C@@H](C(=O)N[C@@H](Cc2c[nH]c3ccccc23)C(N)=O)NC(=O)[C@H](CCCNC(=N)N)NC(=O)[C@@H](Cc2ccccc2)NC(=O)[C@H](Cc2c[nH]cn2)NC1=O` [Example 9.4, Ac-Nle-cyclo(Asp-His-D-Phe-Arg-Dap)-Trp-NH2] (Ac-[Nle]DH[dF]R[Dap]W-NH2; lactam 2-6): the EC50 on hMCR-1 amounted to 0.195 nM. Moreover, the Ki on hMCR-1a amounted to 2 nM; at hMCR-4, 1320 nM.

With `N=C(N)NCCC[C@@H]1NC(=O)[C@@H](Cc2ccccc2)NC(=O)[C@H](Cc2c[nH]cn2)NC(=O)[C@@H](NC(=O)C2CC2)CCC(=O)NCC[C@@H](C(=O)N[C@@H](Cc2c[nH]c3ccccc23)C(N)=O)NC1=O` [Example 9.19, cyclo-propanoyl-cyclo(Glu-His-D-Phe-Arg-Dab)-Trp-NH2], the inhibition constant Ki at hMCR-1a was 3 nM.

For the molecule `N=C(N)NCCC[C@@H]1NC(=O)[C@@H](Cc2ccccc2)NC(=O)[C@H](Cc2c[nH]cn2)NC(=O)[C@@H](NC(=O)CC2CCCC2)CCC(=O)NCC[C@@H](C(=O)N[C@@H](Cc2c[nH]c3ccccc23)C(N)=O)NC1=O` [Example 9.21, cyclopentyl acetyl-cyclo(Glu-His-D-Phe-Arg-Dab)-Trp-NH2], the EC50 on hMCR-1 was 0.004 nM. For the same molecule, the inhibition constant (Ki) at hMCR-1a amounted to 0.01 nM.

Take `CCCC[C@H](NC(C)=O)C(=O)N[C@H]1CCC(=O)NCC[C@@H](C(=O)N[C@@H](C)C(N)=O)NC(=O)[C@H](CCCNC(=N)N)NC(=O)[C@@H](Cc2ccccc2)NC(=O)[C@H](Cc2c[nH]cn2)NC1=O` [Example 9.25, Ac-Nle-cyclo(Glu-His-D-Phe-Arg-Dab)-Ala-NH2] (Ac-[Nle]EH[dF]R[Dab]A-NH2; lactam 2-6): the concentration giving a half-maximal response (EC50) at hMCR-1 is 0.08 nM. The Ki stood at 2 nM at hMCR-1a and 7480 nM on hMCR-4.

`CCCC[C@H](NC(C)=O)C(=O)N[C@H]1CCC(=O)NCC[C@@H](C(=O)N[C@@H](Cc2c[nH]c3ccccc23)C(N)=O)NC(=O)[C@H](CCCNC(=N)N)NC(=O)[C@@H](Cc2ccccc2)NC(=O)[C@H](Cc2c[nH]cn2)NC1=O` [Example 9.31, Ac-Nle-cyclo(Glu-His-D-Phe-Arg-Dab)-Trp-OH]: at hMCR-1, the “MC-1 Emax (average; cAMP HBL)” value is listed as 79% ^. For the same molecule, at hMCR-4, the Ki came to 10000 nM.

As for `CCCC[C@H](NC(C)=O)C(=O)N[C@H]1CNC(=O)CCC(=O)NCC[C@@H](C(=O)N[C@@H](Cc2c[nH]c3ccccc23)C(N)=O)NC(=O)[C@H](CCCNC(=N)N)NC(=O)[C@@H](Cc2ccccc2)NC(=O)[C@H](Cc2c[nH]cn2)NC1=O` [Example 9.43], the Ki on hMCR-1a amounted to 0.065 nM; at hMCR-4, 860 nM.

With `CCCC[C@H](NC(C)=O)C(=O)N[C@H]1CCC(=O)NCC[C@@H](C(N)=O)NC(=O)[C@H](C)NC(=O)[C@@H](Cc2ccccc2)NC(=O)[C@H](Cc2c[nH]cn2)NC1=O` [Example 9.45, Ac-Nle-cyclo(Glu-His-D-Phe-Ala-Dab)-NH2] (Ac-[Nle]EH[dF]A[Dab]-NH2; lactam 2-6), the “MC-1 Emax (average; cAMP HBL)” value at hMCR-1 worked out at 73%.

For `CCCC[C@H](NC(C)=O)C(=O)N[C@H]1CCC(=O)NCC[C@@H](C(N)=O)NC(=O)[C@@H](Cc2ccccc2)NC(=O)[C@H](Cc2c[nH]cn2)NC1=O` [Example 9.46, Ac-Nle-cyclo(Glu-His-D-Phe-Dab)-NH2] (Ac-[Nle]EH[dF][Dab]-NH2; lactam 2-5), the Ki on hMCR-1a and at hMCR-4 was 10000 nM each time.

In the case of `CCCC[C@H](NC(C)=O)C(=O)N[C@H]1CCC(=O)NCC[C@@H](C(=O)N[C@@H](Cc2c[nH]c3ccccc23)C(N)=O)NC(=O)CNC(=O)[C@@H](Cc2ccccc2)NC(=O)[C@H](Cc2c[nH]cn2)NC1=O` [Example 9.47, Ac-Nle-cyclo(Glu-His-D-Phe-Gly-Dab)-Trp-NH2] (Ac-[Nle]EH[dF]G[Dab]W-NH2; lactam 2-6), on hMCR-1, the “MC-1 Emax (average; cAMP HBL)” value is 59%.

In the case of `CCCC[C@H](NC(C)=O)C(=O)N[C@H]1CCC(=O)NCC[C@@H](C(=O)N[C@@H](Cc2c[nH]c3ccccc23)C(N)=O)NC(=O)[C@H](C)NC(=O)[C@@H](Cc2ccccc2)NC(=O)[C@H](Cc2c[nH]cn2)NC1=O` [Example 9.48, Ac-Nle-cyclo(Glu-His-D-Phe-Ala-Dab)-Trp-NH2] (Ac-[Nle]EH[dF]A[Dab]W-NH2; lactam 2-6), at hMCR-1, the “MC-1 Emax (average; cAMP HBL)” value is listed as 72% ^.

Take `CCCC[C@H](NC(C)=O)C(=O)N[C@H]1CCC(=O)NCC[C@@H](C(=O)N[C@@H](Cc2c[nH]c3ccccc23)C(N)=O)NC(=O)[C@H](CCCNC(=N)N)NC(=O)[C@@H](Cc2ccccc2)NC(=O)[C@H](C)NC1=O` [Example 9.49, Ac-Nle-cyclo(Glu-Ala-D-Phe-Arg-Dab)-Trp-NH2]: at hMCR-1, the “MC-1 Emax (average; cAMP HBL)” value came to 86% ^.

Turning to `CCCC[C@H](NC(C)=O)C(=O)N[C@H]1CCC(=O)NCC[C@@H](C(=O)N[C@@H](Cc2c[nH]c3ccccc23)C(N)=O)NC(=O)[C@H](CCCNC(=N)N)NC(=O)[C@@H](Cc2ccccc2)NC(=O)[C@H](CCCNC(=N)N)NC1=O` [Example 9.50, Ac-Nle-cyclo(Glu-Arg-D-Phe-Arg-Dab)-Trp-NH2], on hMCR-1, the “MC-1 Emax (average; cAMP HBL)” value is listed as 100% ^.

Regarding `CCCC[C@H](NC(C)=O)C(=O)N[C@H]1CCC(=O)NCC[C@@H](C(=O)N[C@@H](Cc2c[nH]c3ccccc23)C(N)=O)NC(=O)[C@H](CCCNC(=N)N)NC(=O)[C@@H](Cc2ccccc2)NC(=O)[C@H](CCCNC(N)=O)NC1=O` [Example 9.51, Ac-Nle-cyclo(Glu-Cit-D-Phe-Arg-Dab)-Trp-NH2], the “MC-1 Emax (average; cAMP HBL)” value on hMCR-1 amounted to 97% ^.

`CCCC[C@H](NC(C)=O)C(=O)N[C@H]1CCC(=O)NCC[C@@H](C(=O)N[C@@H](CCCCN)C(N)=O)NC(=O)[C@H](CCCNC(=N)N)NC(=O)[C@@H](Cc2ccccc2)NC(=O)[C@H](Cc2c[nH]cn2)NC1=O` [Example 9.52, Ac-Nle-cyclo(Glu-His-D-Phe-Arg-Dab)-Lys-NH2] (Ac-[Nle]EH[dF]R[Dab]K-NH2; lactam 2-6): the “MC-1 Emax (average; cAMP HBL)” value on hMCR-1 stood at 91% ^.

As for `CCCC[C@H](NC(C)=O)C(=O)N[C@H]1CCC(=O)NCC[C@@H](C(=O)N[C@@H](Cc2c[nH]c3ccccc23)C(N)=O)NC(=O)[C@H](CCCNC(=N)N)NC(=O)[C@@H](Cc2ccccc2)NC(=O)[C@H](CCCCN)NC1=O` [Example 9.53, Ac-Nle-cyclo(Glu-Lys-D-Phe-Arg-Dab)-Trp-NH2], on hMCR-1, the “MC-1 Emax (average; cAMP HBL)” value is on record as 108% ^.

As to `CCCC[C@H](NC(C)=O)C(=O)N[C@H]1CCC(=O)NCC[C@@H](C(=O)N[C@@H](Cc2c[nH]c3ccccc23)C(N)=O)NC(=O)[C@H](CCCNC(=N)N)NC(=O)[C@@H](Cc2ccccc2)NC(=O)[C@H](CCN)NC1=O` [Example 9.54, Ac-Nle-cyclo(Glu-Dab-D-Phe-Arg-Dab)-Trp-NH2], at hMCR-1, the “MC-1 Emax (average; cAMP HBL)” value turned out to be 108% ^.

For the molecule `CCCC[C@H](NC(C)=O)C(=O)N[C@H]1CCC(=O)NCC[C@@H](C(=O)N[C@@H](Cc2c[nH]c3ccccc23)C(N)=O)NC(=O)[C@H](CCCNC(=N)N)NC(=O)[C@@H](Cc2ccccc2)NC(=O)[C@H](CCCN)NC1=O` [Example 9.55, Ac-Nle-cyclo(Glu-Orn-D-Phe-Arg-Dab)-Trp-NH2], the “MC-1 Emax (average; cAMP HBL)” value at hMCR-1 came to 109% ^.

As for `CCCC[C@H](NC(C)=O)C(=O)N[C@H]1CCC(=O)NCC[C@@H](C(N)=O)NC(=O)[C@H](CCCNC(=N)N)NC(=O)[C@@H](Cc2ccccc2)NC(=O)[C@H](CCCN)NC1=O` [Example 9.56, Ac-Nle-cyclo(Glu-Orn-D-Phe-Arg-Dab)-NH2] (Ac-[Nle]E[Orn][dF]R[Dab]-NH2; lactam 2-6), the Ki on hMCR-1a stood at 4 nM; on hMCR-4, 3620 nM.

Take `CCCC[C@H](NC(C)=O)C(=O)N[C@H]1CCC(=O)NCC[C@@H](C(N)=O)NC(=O)[C@H](CCCNC(=N)N)NC(=O)[C@@H](Cc2ccc(C)cc2)NC(=O)[C@H](CCCN)NC1=O` [Example 9.63, Ac-Nle-cyclo(Glu-Orn-D-Phe(4-Me)-Arg-Dab)-NH2] (Ac-[Nle]E[Orn][dPhe(4-Me)]R[Dab]-NH2; lactam 2-6): the values for the Ki on hMCR-1a and on hMCR-4 were 3 nM and 10000 nM, respectively.

For `CCCC[C@H](NC(C)=O)C(=O)N[C@H]1CCC(=O)NCC[C@@H](C(=O)N[C@@H](Cc2c[nH]c3ccccc23)C(N)=O)NC(=O)[C@H](CCCNC(=N)N)NC(=O)[C@@H](Cc2ccccc2)NC(=O)[C@H]2CCCN2C1=O` [Example 9.66, Ac-Nle-cyclo(Glu-Pro-D-Phe-Arg-Dab)-Trp-NH2], the Ki on hMCR-1a came out at 3 nM; on hMCR-4, 185 nM.
